Experimental findings from patent publication US10363257B2 (ZENITH EPIGENETICS LTD., priority 2013, dated 2019) are described below.

Assay [1] concerns the target T1, Brd4 bromodomain 1 (BRD4(1)) (Homo sapiens, UniProt O60885).
T1 construct: made in house; host or cells: E. coli BL21(DE3)
As to the kind of experiment: Inhibition of tetra-acetylated histone H4 binding to Brd4 bromodomain 1 (TR-FRET). Conditions: tetra-acetylated histone H4 peptide, first bromodomain of Brd4. The method, boiled down:
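Serially diluted compound (0.2% DMSO) incubated 2 h at room temperature with 200 nM N-His BRD4 bromodomain 1 and 25-50 nM biotinylated tetra-acetyl H4 peptide, detected via Eu-streptavidin/XL665 anti-His. Loss of 665 nm relative to 620 nm signal gave IC50 from dose-response.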
(Time-resolved FRET reads energy transfer from a long-lived donor to a nearby acceptor.)

Assay [2] concerns human AML MV-4-11 cells. As to the kind of experiment: Inhibition of cell proliferation in MV4-11 cells (CellTiter Aqueous One). Type of assay: cell-based. Conditions: for Cell Proliferation activity: 72 h; for IC50: MV4-11, 72 h. Summed up:
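IC50 values come from blank-corrected proliferation relative to DMSO controls, read as 490 nm absorbance 3–4 h after CellTiter Aqueous One addition. Before that, cells seeded at 5×10^4/well were exposed for 72 h (37° C, 5% CO2) to triplicate two-fold compound dilutions spanning 30–0.2 μM.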

Assay [3] deals with hIL-6 mRNA. In words: Inhibition of hIL-6 mRNA transcription in LPS-stimulated U937 cells. The note with it: Homo sapiens, U-937; PMA-differentiated U937 cells, 1 h pretreatment, 1 ug/mL LPS stimulation, 3 h; read-out: IL-6 activity (Inhibition of hIL-6 mRNA Transcription). It counts as cell-based. Here is the method:
In this example, hIL-6 mRNA in tissue culture cells was quantitated to measure the transcriptional inhibition of hIL-6 when treated with a compound of the invention.
Human leukemic monocyte lymphoma U937 cells (CRL-1593.2) were plated at a density of 3.2×10^4 cells per well in a 96-well plate in 100 μL RPMI-1640 containing 10% FBS and penicillin/streptomycin, and differentiated into macrophages for 3 days in 60 ng/mL PMA ([…]) at 37° C. in 5% CO2 prior to the addition of compound. The cells were pretreated for 1 h with increasing concentrations of test compound in 0.1% DMSO prior to stimulation with 1 ug/mL lipopolysaccharide from Escherichia coli. Triplicate wells were used for each concentration. The cells were incubated at 37° C., 5% CO2 for 3 h before the cells were harvested. At time of harvest, media was removed and cells were rinsed in 200 μL PBS. Cells were harvested using the mRNA Catcher PLUS kit according to manufacturer's instructions. The eluted mRNA was then used in a one-step quantitative real-time PCR reaction using components of the RNA UltraSense™ One-Step Kit (Life Technologies) together with Applied Biosystems TaqMan® primer-probes for hIL-6 and Cyclophilin. Real-time PCR plates were run on a VIa™ 7 real time PCR machine (Applied Biosystems), data was analyzed, normalizing the Ct values for hIL-6 to an internal control, prior to determining the fold expression of each sample, relative to the control.

The test system of assay [4] is c-myc. In words: Inhibition of c-myc expression (mRNA, real-time PCR) in MV4-11 cells. It counts as cell-based. The note with it: Human AML MV4-11 cells, 3 h, cMYC mRNA. The method, boiled down:
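One-step TaqMan qPCR of cMYC, normalized to an internal control with Cyclophilin probes run, gave fold expression versus DMSO (0.1%) control. Samples: triplicate MV4-11 wells exposed 3 h at 37° C to rising compound concentrations in IMDM with 10% FBS.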
A general note: Real-time PCR tracks product formation cycle by cycle.

For `Cc1noc(C)c1-c1nc(N)c2ncn(Cc3ccccc3)c2n1` [Example Compound 1, 9-Benzyl-2-(3,5-dimethylisoxazol-4-yl)-9H-purin-6-amine], the IC50 in assay [1] and in assay [3] was 300 to 3000 nM throughout. Besides, the “Cell Proliferation activity” value in assay [2] is recorded as “Not active”.

Consider `Cc1noc(C)c1-c1ccc2[nH]c(=O)n(Cc3ccccc3)c2n1` [Example Compound 2, 3-Benzyl-5-(3,5-dimethylisoxazol-4-yl)-1H-imidazo[4,5-b]pyridin-2(3H)-one], for which the IC50 was at most 300 nM in assay [1], 3000 to 30000 nM in assay [4], 300 to 3000 nM in assay [2] and 300 to 3000 nM in assay [3].

Regarding `Cc1noc(C)c1-c1ccc2c(n1)[nH]c(=O)n2Cc1ccccc1` [Example Compound 3, 1-Benzyl-5-(3,5-dimethylisoxazol-4-yl)-1H-imidazo[4,5-b]pyridin-2(3H)-one], the IC50 in assay [1] was 300 to 3000 nM; in assay [4] it was 3000 to 30000 nM; in assay [2], 3000 to 30000 nM; in assay [3], 3000 to 30000 nM.

On to `Cc1noc(C)c1-c1cnc2c(c1)ncn2Cc1ccccc1` [Example Compound 4, 4-(3-Benzyl-3H-imidazo[4,5-b]pyridin-6-yl)-3,5-dimethylisoxazole], for which the IC50 lay within 300 to 3000 nM in assay [1], 300 to 3000 nM in assay [4], 3000 to 30000 nM in assay [2] and 300 to 3000 nM in assay [3].

Regarding `Cc1noc(C)c1-c1ccc2oc(=O)n(Cc3ccccc3)c2c1` [Example Compound 6, 3-Benzyl-5-(3,5-dimethylisoxazol-4-yl)benzo[d]oxazol-2(3H)-one], the IC50 in assay [1], in assay [4], in assay [2] and in assay [3] was 300 to 3000 nM throughout.

For the molecule `Cc1noc(C)c1-c1ccc2ncc(=O)n(Cc3ccccc3)c2c1` [Example Compound 11, 1-Benzyl-7-(3,5-dimethylisoxazol-4-yl)quinoxalin-2(1H)-one], the IC50 is at most 300 nM in assay [1] and 300 to 3000 nM in assay [3]. The “Cell Proliferation activity” value in assay [2] is recorded as “Not active”.

As for `Cc1noc(C)c1-c1cc(C(N)=O)c2[nH]c(=O)n(Cc3ccccc3)c2c1` [Example Compound 21, 1-benzyl-6-(3,5-dimethylisoxazol-4-yl)-2-oxo-2,3-dihydro-1H-benzo[d]imidazole-4-carboxamide], the IC50 was at most 300 nM in assay [1], 300 to 3000 nM in assay [2] and at most 300 nM in assay [3].

On to `Cc1noc(C)c1-c1ccc2[nH]cc(Nc3ccccc3)c2n1` [Example Compound 23, 5-(3,5-dimethylisoxazol-4-yl)-N-phenyl-1H-pyrrolo[3,2-b]pyridin-3-amine], for which the IC50 in assay [1] was in the range of 300 to 3000 nM; in assay [2], 3000 to 30000 nM; in assay [3], 300 to 3000 nM.

Turning to `Cc1noc(C)c1-c1cc2c(cn1)ncn2Cc1ccccc1` [Example Compound 31, 4-(1-benzyl-1H-imidazo[4,5-c]pyridin-6-yl)-3,5-dimethylisoxazole], the IC50 is 300 to 3000 nM in assay [1], 3000 to 30000 nM in assay [2] and 300 to 3000 nM in assay [3].

Consider `Cc1noc(C)c1-c1cnc2c(c1)ncn2Cc1ccc(C(F)(F)F)cc1` [Example Compound 40, 3,5-dimethyl-4-(3-(4-(trifluoromethyl)benzyl)-3H-imidazo[4,5-b]pyridin-6-yl)isoxazole], for which the IC50 in assay [1] is 300 to 3000 nM; in assay [3], 3000 to 30000 nM. Further, the “Cell Proliferation activity” value in assay [2] was “Not active”.

In the case of `Cc1noc(C)c1-c1cnc2ncn(Cc3ccc(C(F)(F)F)cc3)c2c1` [Example Compound 41, 3,5-dimethyl-4-(1-(4-(trifluoromethyl)benzyl)-1H-imidazo[4,5-b]pyridin-6-yl)isoxazole], the IC50 in assay [1] was at most 300 nM; in assay [2] it was 300 to 3000 nM; in assay [3] it was 3000 to 30000 nM.

For the molecule `Cc1noc(C)c1-c1cnc2ncn(Cc3ccc(Cl)cc3)c2c1` [Example Compound 43, 4-(1-(4-chlorobenzyl)-1H-imidazo[4,5-b]pyridin-6-yl)-3,5-dimethylisoxazole], the IC50 in assay [1] is at most 300 nM; in assay [2] it was 300 to 3000 nM; in assay [3], 300 to 3000 nM.

`Cc1noc(C)c1-c1cnc2nc(C)n(CC3CC3)c2c1` [Example Compound 63, 4-(1-(cyclopropylmethyl)-2-methyl-1H-imidazo[4,5-b]pyridin-6-yl)-3,5-dimethylisoxazole]: the IC50 in assay [1] was 300 to 3000 nM; in assay [4], 3000 to 30000 nM; in assay [3] it was 300 to 3000 nM.

For the molecule `Cc1noc(C)c1-c1cnc2nc(C)n(Cc3ccc(C#N)cc3)c2c1` [compound 70, 4-((6-(3,5-dimethylisoxazol-4-yl)-2-methyl-1H-imidazo[4,5-b]pyridin-1-yl)methyl)benzonitrile], the IC50 was at most 300 nM in assay [1], 3000 to 30000 nM in assay [2] and 300 to 3000 nM in assay [3].

As to `Cc1noc(C)c1-c1cc(C#N)c2nc(C)n(Cc3ccccc3)c2c1` [compound 85, 1-benzyl-6-(3,5-dimethylisoxazol-4-yl)-2-methyl-1H-benzo[d]imidazole-4-carbonitrile], the IC50 in assay [1] is at most 300 nM; in assay [4] it was at most 300 nM; in assay [3], 300 to 3000 nM.

In the case of `Cc1noc(C)c1-c1cc([N+](=O)[O-])c2nc(N3CCCC3)n(Cc3ccccc3)c2c1` [compound 135, 4-(1-benzyl-4-nitro-2-(pyrrolidin-1-yl)-1H-benzo[d]imidazol-6-yl)-3,5-dimethylisoxazole], the IC50 in assay [1] is at most 300 nM; in assay [2] it was 300 to 3000 nM; in assay [3] it was at most 300 nM.

With `Cc1noc(C)c1-c1cc([N+](=O)[O-])c2nc(N3CCN(C)CC3)n(Cc3ccccc3)c2c1` [compound 136, 4-(1-benzyl-2-(4-methylpiperazin-1-yl)-4-nitro-1H-benzo[d]imidazol-6-yl)-3,5-dimethylisoxazole], the results for the IC50 in assay [1], in assay [2] and in assay [3] were at most 300 nM, 300 to 3000 nM and 300 to 3000 nM, respectively.

As to `COCCNc1nc2c([N+](=O)[O-])cc(-c3c(C)noc3C)cc2n1Cc1ccccc1` [compound 137, 1-benzyl-6-(3,5-dimethylisoxazol-4-yl)-N-(2-methoxyethyl)-4-nitro-1H-benzo[d]imidazol-2-amine], the IC50 in assay [1], in assay [2] and in assay [3] was at most 300 nM in each case.

On to `Cc1noc(C)c1-c1cc([N+](=O)[O-])c2c(c1)n(Cc1ccccc1)c(=O)n2C` [compound 150, 1-benzyl-6-(3,5-dimethylisoxazol-4-yl)-3-methyl-4-nitro-1H-benzo[d]imidazol-2(3H)-one], for which the IC50 in assay [1] is at most 300 nM; in assay [3], 300 to 3000 nM. The “Cell Proliferation activity” value in assay [2] is listed as “Not active”.

With `Cc1nc2ncc(-c3ccnn3C)cc2n1Cc1ccccc1` [compound 154, 1-benzyl-2-methyl-6-(1-methyl-1H-pyrazol-5-yl)-1H-imidazo[4,5-b]pyridine], the values for the IC50 in assay [1], in assay [2] and in assay [3] were at most 300 nM, 3000 to 30000 nM and 3000 to 30000 nM, respectively.

Take `Cc1noc(C)c1-c1cc(N)c2c(c1)n(Cc1ccccc1)c(=O)n2C` [compound 162, 4-amino-1-benzyl-6-(3,5-dimethylisoxazol-4-yl)-3-methyl-1H-benzo[d]imidazol-2(3H)-one]: the IC50 in assay [1], in assay [2] and in assay [3] was at most 300 nM throughout.

Regarding `CC(=O)Nc1cc(-c2c(C)noc2C)cc2c1n(C)c(=O)n2Cc1ccccc1` [compound 164, N-(1-benzyl-6-(3,5-dimethylisoxazol-4-yl)-3-methyl-2-oxo-2,3-dihydro-1H-benzo[d]imidazol-4-yl)acetamide], the IC50 in assay [1] and in assay [3] was at most 300 nM each time.

Consider `Cc1noc(C)c1-c1cnc2nc(NC3CCC(O)CC3)n(Cc3ccccc3)c2c1` (stereo not drawn) [compound 207, 4-((1-benzyl-6-(3,5-dimethylisoxazol-4-yl)-1H-imidazo[4,5-b]pyridin-2-yl)amino)cyclohexanol], for which the IC50 in assay [1], in assay [2] and in assay [3] was at most 300 nM each time.
